The source of these data is patent EP3389640B1, “PHARMACEUTICAL COMPOSITION COMPRISING ANHYDROUS DASATINIB” (Synthon B.V., priority 2015, dated 2017).

Values after ≈ are worked out from the molar mass of the structure shown. Read-outs that look alike come from different tables or passages of the source.

What all share (type): physicochemical
Data set [1] can be described thus: solubility at different pH values. An excerpt: Table 1 gives an overview of the solubility of anhydrous dasatinib ("N-6") and dasatinib monohydrate ("H1-7") at different pH values. Table 1: solubility of anhydrous dasatinib ("N-6") and dasatinib monohydrate ("H1-7")
A short description of data set [2]: form conversion during wet granulation in water. As to conditions: during the process of granulation in water.
Method: The wet granulation process is performed with a granulation solvent selected from the group consisting of water, acetone, ethanol, isopropanol or a mixture thereof.
Data set [3] is described as follows: stability of tablets stored at 40°C/75% RH (assay and impurities). As to conditions: triacetin used as plasticizer in the coating formulation. The text has this:
The intragranular components were blended with water in a high shear mixer. The resulting granulate was dried in a fluid bed dryer. The granulate was sieved through an appropriate mesh size sieve. Microcrystalline cellulose and croscarmellose sodium were sieved through a suitable mesh size sieve for deagglomeration. The excipients were mixed with the sieved granulate in a diffusion mixer. Magnesium stearate was sieved through an appropriate sieve to deagglomerate and mixed with the powder mix in a diffusion mixer. The homogeneous powder obtained, was compressed using a rotating tablet press using appropriate punches. Part of the tablets were coated with a water suspension of Opadry® II White 31K28459 coating until 3% weight gain (= […]). The tablets were packed in suitable packaging material and were stored at 40°C/75% RH.
Hydroxypropyl cellulose was dissolved in water and blended with the other intragranular components in a high shear mixer. The resulting granulate was dried in a fluid bed dryer. The granulate was sieved through an appropriate mesh size sieve. Microcrystalline cellulose and croscarmellose sodium were sieved through a suitable mesh size sieve for deagglomeration. The excipients were mixed with the sieved granulate in a tumbling mixer. […]

`Cc1nc(Nc2ncc(C(=O)Nc3c(C)cccc3Cl)s2)cc(N2CCN(CCO)CC2)n1` [Anhydrous dasatinib ("N-6"), N-(2-chloro-6-methylphenyl)-2-[[6-[4-(2-hydroxyethyl)-1-piperazinyl]-2-methyl-4-pyrimidinyl]amino]-5-thiazolecarboxamide]: the solubility in data set [1] (pH 1.2) worked out at 34510 µg/mL (≈ 70700 µM); in data set [1] (pH 1.2, listed as anhydrous form "N-6"), 34510 µg/mL (≈ 70700 µM); in data set [1] (pH 4.5, aqueous buffer, pH 4.5, read-out: solubility) it was 179 µg/mL (≈ 367 µM); in data set [1] (pH 6.8), 1.8 µg/mL (≈ 3.69 µM). Also, the “conversion into dasatinib monohydrate” value in data set [2] is listed as “does not convert into dasatinib monohydrate”. In data set [3], the “reaction with the organic ester triacetin” value is “does not react”.

In the case of `Cc1nc(Nc2ncc(C(=O)Nc3c(C)cccc3Cl)s2)cc(N2CCN(CCO)CC2)n1` [Dasatinib monohydrate ("H1-7"), N-(2-chloro-6-methylphenyl)-2-[[6-[4-(2-hydroxyethyl)-1-piperazinyl]-2-methyl-4-pyrimidinyl]amino]-5-thiazolecarboxamide], the solubility in data set [1] (pH 1.2) is 2850 µg/mL; in data set [1] (pH 1.2, listed as dasatinib monohydrate "H1-7") it was 2850 µg/mL; in data set [1] (pH 4.5), 134 µg/mL; in data set [1] (pH 6.8) it was 0.6 µg/mL.
